Data taken from the supplement of paper PMC10307832.

How the values were obtained:
Experiment in all cases: relative viability (nuclei count vs DMSO), 5 days (fraction); higher = more cells survive
[1] = compound: COc1cc(N2CCC(N3CCN(C)CC3)CC2)ccc1Nc1ncc(Cl)c(Nc2ccccc2S(=O)(=O)C(C)C)n1 [NVP-TAE684] + N=C(N)NC(=N)NCCc1ccccc1 [Phenformin] (partner 250 µM)
How it was run: (§1)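 Medians of duplicate plates are given as relative viability. That measure is the nuclei count in treated wells divided by the count in vehicle wells. Counts were taken on 4× images of lung cancer cell lines in 1536-well plates, 5 days after pin-tool dosing the day after seeding with one drug alone or a fixed anchor-drug dose plus five library-drug doses (not always all listed) in √10 steps.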

[2] = compound: C#Cc1cccc(Nc2ncnc3cc(OC)c(OCCCCCCC(=O)NO)cc23)c1 [CUDC-101] + CC(=O)c1c(C)c2cnc(Nc3ccc(N4CCNCC4)cn3)nc2n(C2CCCC2)c1=O [Palbociclib] (partner 0.5 µM)
How it was run: as §1

[3] = compound: C1=CC=C2C(=C1)N=C(S2)C(C#N)C3=NC(=NC=C3)NCCC4=CN=CC=C4 + CC(C)C[C@H](NC(=O)[C@H](Cc1ccccc1)NC(=O)c1cnccn1)B(O)O [Bortezomib] (partner 0.002 µM)
How it was run: as §1

[4] = compound: C1=CC=C2C(=C1)N=C(S2)C(C#N)C3=NC(=NC=C3)NCCC4=CN=CC=C4 + Cc1nc(Nc2ncc(C(=O)Nc3c(C)cccc3Cl)s2)cc(N2CCN(CCO)CC2)n1 [Dasatinib] (partner 0.075 µM)
How it was run: as §1

Cell Line | relative viability ([1]; first compound 0.2 µM) | relative viability ([1]; first compound 0.6325 µM) | relative viability ([1]; first compound 2 µM) | relative viability ([2]; first compound 0.01 µM) | relative viability ([2]; first compound 0.03162 µM) | relative viability ([2]; first compound 0.1 µM) | relative viability ([2]; first compound 0.3162 µM) | relative viability ([2]; first compound 1 µM) | relative viability ([3]; first compound 0.005 µM) | relative viability ([3]; first compound 0.01581 µM) | relative viability ([3]; first compound 0.05 µM) | relative viability ([3]; first compound 0.1581 µM) | relative viability ([3]; first compound 0.5 µM) | relative viability ([4]; first compound 0.005 µM) | relative viability ([4]; first compound 0.01581 µM) | relative viability ([4]; first compound 0.05 µM) | relative viability ([4]; first compound 0.1581 µM) | relative viability ([4]; first compound 0.5 µM)
HOP-62 | 0.545 | 0.734 | 0.788 | 0.448 | 0.38 | 0.478 | 0.421 | 0.425 | 0.798 | 0.576 | 0.907 | 1.09 | 0.738 | 0.496 | 0.59 | 0.685 | 0.807 | 0.565
LC-2-ad | 0.574 | 0.5 | 0.456 | 0.501 | 0.553 | 0.477 | 0.482 | 0.451 | 1 | 1.08 | 1.01 | 1.08 | 0.944 | 0.542 | 0.398 | 0.55 | 0.525 | 0.396
LCLC-97TM1 | 0.4 | 0.382 | 0.113 | 0.203 | 0.228 | 0.252 | 0.173 | 0.164 |  | 0.356 | 0.627 | 0.754 | 0.291 | 0.735 | 0.923 | 1.03 | 0.99 | 0.792
LCLC-103H | 0.297 | 0.356 | 0.276 | 0.47 | 0.51 | 0.491 | 0.45 | 0.436 | 0.96 | 0.984 | 1.07 | 1.23 | 0.91 | 0.415 | 0.456 | 0.473 | 0.507 | 0.312
LOU-NH91 | 0.631 | 0.601 | 0.531 | 0.574 | 0.445 | 0.529 | 0.581 | 0.515 | 0.492 | 0.515 | 0.507 | 0.464 | 0.43 | 0.501 | 0.567 | 0.509 | 0.58 | 0.471
LU99A | 0.912 | 0.886 | 0.659 | 0.332 | 0.391 | 0.374 | 0.425 | 0.212 | 1.08 | 1.14 | 1.1 | 1.27 | 1.43 | 0.532 | 0.662 | 0.52 | 0.855 | 0.767
LXF-289 | 0.555 | 0.52 | 0.443 | 0.6 | 0.604 | 0.571 | 0.589 | 0.515 | 0.888 | 1.03 | 1.02 | 1.06 | 0.717 | 0.152 | 0.237 | 0.209 | 0.24 | 0.179
NCI-H23 | 0.987 | 0.757 | 0.518 | 0.463 | 0.562 | 0.563 | 0.535 | 0.446 |  | 0.917 | 1.01 | 1.37 | 0.92 | 0.645 | 0.836 | 1.02 | 0.974 | 0.993
NCI-H322M | 0.731 | 0.705 | 0.52 | 0.515 | 0.47 | 0.465 | 0.497 | 0.436 | 0.947 | 1.31 | 1.21 | 1.32 | 1.23 | 0.232 | 0.238 | 0.23 | 0.259 | 0.26
NCI-H441 | 0.574 | 0.755 | 0.258 | 0.222 | 0.255 | 0.183 | 0.231 | 0.221 |  | 0.414 | 0.679 | 0.912 | 0.743 |  | 0.663 | 0.638 | 0.473 | 0.425
NCI-H460 | 0.354 | 0.547 | 0.0633 | 0.277 | 0.223 | 0.135 | 0.149 | 0.0952 |  | 1.09 | 1.08 | 1.42 | 0.609 | 0.356 | 0.47 | 0.451 | 0.732 | 0.418
NCI-H520 | 0.553 | 0.451 | 0.242 | 0.227 | 0.199 | 0.277 | 0.32 | 0.225 | 0.348 | 0.526 | 0.577 | 1.27 | 0.406 | 0.231 | 0.158 | 0.188 | 0.324 | 0.18
NCI-H647 | 0.309 | 0.423 | 0.189 | 0.417 | 0.345 | 0.383 | 0.386 | 0.253 |  | 1.04 | 0.869 | 1.05 | 0.989 | 0.128 | 0.188 | 0.219 | 0.24 | 0.135
NCI-H650 | 0.462 | 0.371 | 0.325 | 0.402 | 0.365 | 0.302 | 0.374 | 0.29 | 0.482 | 0.528 | 0.748 | 1.22 | 0.778 | 0.43 |  | 0.405 | 0.589 | 0.476
NCI-H661 | 0.275 | 0.272 | 0.242 | 0.382 | 0.381 | 0.388 | 0.416 | 0.287 | 0.708 | 0.824 | 0.662 | 0.695 | 0.794 | 0.778 | 0.785 | 0.817 | 0.917 | 0.805
NCI-H727 | 0.512 | 0.641 | 0.341 | 0.642 | 0.61 | 0.563 | 0.714 | 0.57 | 0.526 | 0.76 | 0.819 | 1.13 | 0.624 |  | 0.387 | 0.368 | 0.413 | 0.347
NCI-H838 | 0.468 | 0.395 | 0.193 | 0.213 | 0.221 | 0.233 | 0.26 | 0.214 | 0.641 | 0.834 | 0.841 | 1.05 | 0.752 | 0.204 | 0.28 | 0.325 | 0.264 | 0.262
NCI-H1355 | 0.431 | 0.391 | 0.327 | 0.392 | 0.429 | 0.399 | 0.376 | 0.37 | 1.1 | 1.1 | 1.22 | 1.27 | 1.1 | 0.674 | 0.66 | 0.699 | 0.772 | 0.478
NCI-H1437 | 0.283 | 0.31 | 0.224 | 0.287 | 0.327 | 0.302 | 0.342 | 0.302 | 0.475 | 0.569 | 0.848 | 0.652 | 0.429 | 0.363 | 0.303 | 0.528 | 0.562 | 0.376
NCI-H1650 | 0.505 | 0.285 | 0.148 | 0.37 | 0.23 | 0.294 | 0.308 | 0.19 | 0.26 | 0.204 | 0.19 | 0.21 | 0.206 | 0.449 | 0.278 | 0.324 | 0.372 | 0.263
NCI-H1651 | 0.278 | 0.336 | 0.179 | 0.548 | 0.543 | 0.497 | 0.529 | 0.493 | 0.636 | 0.924 | 0.935 | 1.05 | 0.957 | 0.307 | 0.35 | 0.587 | 0.393 | 0.3
NCI-H1666 | 0.564 | 0.505 | 0.501 | 0.64 | 0.661 | 0.661 | 0.599 | 0.664 | 1.12 | 0.867 | 0.673 | 0.899 | 0.822 | 0.603 | 0.754 | 0.734 | 0.838 | 0.818
NCI-H1734 | 0.332 | 0.338 | 0.255 | 0.357 | 0.374 | 0.342 | 0.382 | 0.274 | 0.789 | 0.895 | 0.912 | 1.07 | 0.831 |  | 0.476 | 0.479 | 0.605 | 0.401
NCI-H1755 | 0.631 | 0.537 | 0.512 | 0.431 | 0.472 | 0.507 | 0.469 | 0.435 | 0.943 | 1.07 | 0.996 | 1.13 | 0.884 | 0.365 | 0.397 | 0.404 | 0.456 | 0.384
NCI-H1792 | 0.268 | 0.25 | 0.159 | 0.675 | 0.649 | 0.7 | 0.675 | 0.647 |  | 1.04 | 0.941 | 1.11 | 0.534 | 0.722 | 0.83 | 0.837 | 1.29 | 0.665
NCI-H1915 | 0.332 | 0.343 | 0.369 | 0.547 | 0.493 | 0.524 | 0.472 | 0.339 | 0.552 | 1.05 | 0.964 | 1.19 | 0.647 | 0.36 | 0.294 | 0.28 | 0.335 | 0.357
NCI-H1975 | 0.422 | 0.367 | 0.24 | 0.535 | 0.623 | 0.601 | 0.673 | 0.536 | 0.377 | 0.41 | 0.367 | 0.414 | 0.307 | 0.352 | 0.333 | 0.35 | 0.37 | 0.24
NCI-H1993 | 0.508 | 0.467 | 0.519 | 0.837 | 0.656 | 0.592 | 0.618 | 0.482 | 1.02 | 1.07 | 0.886 | 1.1 | 1.06 | 0.565 | 0.607 | 0.487 | 0.673 | 0.536
NCI-H2009 | 0.47 | 0.458 | 0.328 | 0.219 | 0.191 | 0.263 | 0.258 | 0.276 | 0.936 | 0.906 | 1.03 | 1.08 | 0.993 | 0.257 | 0.25 | 0.261 | 0.324 | 0.267
NCI-H2023 | 0.449 | 0.415 | 0.19 | 0.42 | 0.342 | 0.457 | 0.416 | 0.361 | 0.893 | 0.956 | 0.942 | 1.14 | 1.02 | 0.454 | 0.519 | 0.504 | 0.78 | 0.364
